Test system: NCI-H460 P53KO #1 cells
Assay: In vitro proliferation under normoxia conditions (CTG, 72 hours), Example 29
Format: cell-based, human
Conditions: Table 25
Protocol: • 1) NCI-H460 and NCI-H460 P53KO # 1 cell suspensions were added to 96-well plate (100 µL per well), with a cell density of 2000 cells/well. • 2) The cells were cultured overnight in a 37°C, 5% CO2 incubator. • 3) Compound Treatment
Monotherapy: 24 hours after cell plating, each well was supplemented with 99.5 µL of growth medium. Then, 0.5 µL of test compounds at different concentrations was added. The plate was gently shaken to ensure even mixing, and then placed in a 37°C, 5% CO2 incubator.
Combination therapy: 24 hours after cell plating, each well was supplemented with 99 µL of growth medium. Then, 0.5 µL of the combination compound was added. The plate was gently shaken to ensure even mixing, and then placed in an incubator for 2 hours. Then, 0.5µL of test compounds at different concentrations was added. The plate was gently shaken to ensure even mixing, and then placed in a 37°C, 5% CO2 incubator. • 4) The cell plate was placed in the incubator for 72 hours. • 5) The cell plate to be tested was placed at room temperature and equilibrated for 30 minutes, and 100 µL of medium was discarded from each well. • 6) 25 µL of CTG reagent was added to each well, placed at a fast shaker to shake for 2 minutes, and placed at room temperature for 30 minutes (protected from light). • 7) The chemiluminescence signal value was read using a multifunctional microplate reader with a reading time of 1000 ms. • 8) IC50 (half maximal inhibitory concentration) values were calculated using GraphPad Prism 5 software.

C[C@H](OP(=O)(N1CC1)N1CC1)c1ccc([N+](=O)[O-])c(Oc2cccc(C(=O)N(C)C)c2)c1 [AST-3424]
IC50 (Homo sapiens, NCI-H460 P53KO # 1, normoxia, alone or + 3 µM AST-3021): 5.45 nM | Ratio, knockout / wild-type (IC50 in NCI-H460 P53KO # 1 / NCI-H460): 12.67
